Measurements from PMC11509018, “Evaluation of the Role of Tanshinone I in an In Vitro System of Charcot-Marie-Tooth Disease Type 2N” (International Journal of Molecular Sciences, 2024).

How the values were obtained:
AlaRS^R329H [1] = molecular target: T1, AlaRS^R329H (Homo sapiens, UniProt P49588, R329H); experiment: Thermal shift assay (TSA); type: binding; settings: positive hit = shift of more than 2.5 °C
T1 construct: made in house; host or cells: E. coli BL21 (DE3), pET-21a
T1 sequence (P49588 1-968 R329H): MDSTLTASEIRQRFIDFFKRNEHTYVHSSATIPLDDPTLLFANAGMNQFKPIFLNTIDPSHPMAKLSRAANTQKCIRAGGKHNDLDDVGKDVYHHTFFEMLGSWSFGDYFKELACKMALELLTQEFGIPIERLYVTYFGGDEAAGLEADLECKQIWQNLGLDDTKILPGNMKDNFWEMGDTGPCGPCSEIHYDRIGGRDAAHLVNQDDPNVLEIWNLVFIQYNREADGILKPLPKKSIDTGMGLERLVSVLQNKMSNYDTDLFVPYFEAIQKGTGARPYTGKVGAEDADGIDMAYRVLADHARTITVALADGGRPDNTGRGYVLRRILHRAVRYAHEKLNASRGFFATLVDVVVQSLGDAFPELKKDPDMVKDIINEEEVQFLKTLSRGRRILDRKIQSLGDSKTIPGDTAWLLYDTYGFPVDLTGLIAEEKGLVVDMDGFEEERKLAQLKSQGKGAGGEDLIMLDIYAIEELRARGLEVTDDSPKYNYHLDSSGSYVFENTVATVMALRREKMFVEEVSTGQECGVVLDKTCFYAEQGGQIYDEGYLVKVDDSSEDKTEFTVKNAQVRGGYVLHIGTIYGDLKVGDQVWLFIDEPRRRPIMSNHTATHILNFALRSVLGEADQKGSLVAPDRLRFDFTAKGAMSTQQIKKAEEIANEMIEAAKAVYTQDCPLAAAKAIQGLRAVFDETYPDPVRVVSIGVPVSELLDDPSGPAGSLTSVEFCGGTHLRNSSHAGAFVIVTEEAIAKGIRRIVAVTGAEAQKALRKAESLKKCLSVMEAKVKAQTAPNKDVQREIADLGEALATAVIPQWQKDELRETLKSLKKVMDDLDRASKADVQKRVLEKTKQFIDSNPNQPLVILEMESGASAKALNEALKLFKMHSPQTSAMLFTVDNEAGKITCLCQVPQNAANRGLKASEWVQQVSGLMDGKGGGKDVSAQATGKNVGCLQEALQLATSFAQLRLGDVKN
From the text: In this assay, with increasing temperatures, the protein undergoes thermal unfolding, exposing its hydrophobic core. Subsequently, a fluorescent dye binds to these hydrophobic regions, becoming unquenched. Fluorescence is closely monitored, and the midpoint of the protein unfolding transition is designated as the Tm. Ligand binding frequently influences protein thermal stability during denaturation. Thus, the ligand binding affinity of any potential inhibitor can be gauged by evaluating the shift in the Tm. In this experiment, we screened a library of 2000 small molecules (Table S1) and classified as positive hits those that caused a shift in the Tm of the mutant protein of more than 2.5 °C. From the TSA, we identified four small molecules that met this criterion (Figure 2A, Table 1). Specifically, Atazanavir sulfate caused a shift of 4.0 °C, Tanshinone I a shift of 3.1 °C, Hederacolchiside A1 a shift of 4.3 °C, and Hexylresorcinol a shift of 5.5 °C (Figure 2B). To assess the impact of small molecules on the thermal stability of mutant proteins, thermal shift assays were performed using a […] (Applied Biosystems, Waltham, MA, USA) with the Protein Thermal Shift™ Kit dye (Thermo Fisher Scientific, Waltham, MA, USA). Each well of a 96-well Optical Reaction Plate (Applied Biosystems) contained 14 μL of thermal shift buffer, 2 μL of diluted thermal shift dye (8×), 2 μL of a 1 mM small molecule solution, and 2 μL of 1 mg/mL protein. Plates were incubated at 4 °C for 1 h before being heated from 25 °C to 95 °C at 1 °C/min. The fluorescence signal of SYPRO orange (excitation/emission: 490/530 nm) was recorded at 30 s intervals to monitor protein denaturation. The melting temperature (Tm), defined as the midpoint of the unfolding transition, was determined from the fluorescence–temperature curve. ΔTm was calculated as the difference in Tm between AlaRS^R329H treated with compounds and the control. Experiments were conducted in triplicate for accuracy. The experiment was repeated three times.

AlaRS^R329H [2] = molecular target: T1, AlaRS^R329H; experiment: Biolayer interferometry (BLI); type: binding; settings: immobilized AlaRS^R329H, 40, 20, 10, 5, 2.5 μM, mean ± SD, triplicate
From the text: To quantitatively analyze the binding affinity between the small molecules and the CMT mutant proteins, we performed BLI analysis on the selected candidates. BLI offers direct measurements of drug–protein binding kinetics, including key parameters such as the equilibrium dissociation constant (KD), association rate (Kon), and dissociation rate (Koff). This analysis provided key insights into the binding affinities of the four small molecules with the mutant protein AlaRS^R329H. […] To further quantify the binding of small molecules to mutant proteins, binding experiments with AlaRS^R329H proteins and small molecules were conducted using an Octet R8 system (ForteBio, Fremont, CA, USA). Purified His-tagged AlaRS^R329H proteins (500 μg/mL) were captured on Ni-NTA biosensors (ForteBio, Fremont, CA, USA), achieving a saturation response of 4–5 nm after 300 s. The biosensors were then transferred to Octet buffer (PBS with 0.01% Tween 20) for 180 s to remove loosely bound, nonspecific proteins and to establish a stable baseline. Following this, the sensors were immersed in diluted Tanshinone I (2.5–100 μM in assay buffer) for 120 s to record the association signal, and then transferred back into Octet buffer to monitor the dissociation signal for 120 s. Reference wells containing buffer instead of Tanshinone I were included to correct for baseline shifts. Additionally, a parallel set of Ni-NTA sensors in buffer served as negative reference controls to account for nonspecific binding of the compounds to the biosensor surface. The data were processed using a double reference subtraction protocol to eliminate nonspecific signals, background noise, and signal drifts caused by biosensor variability. All assays were performed in 96-well black plates with a total volume of 200 μL per well at 30 °C. Data analysis, including correction and curve fitting, was carried out using Octet® Analysis Studio 12.2.2.26. The experiment was repeated three times.

**Q.** Which results are given for `Cc1coc2c1C(=O)C(=O)c1c-2ccc2c(C)cccc12` [Tanshinone I]?
**A.** ΔTm (shift between the Tm values of AlaRS^R329H with and without compounds) (AlaRS^R329H [1]): 3.1 °C; Kd (AlaRS^R329H [2]): 5.1 ± 1.9 µM
